Legend:
Menin-MLL1 = molecular target: T1, Menin-MLL1 (Homo sapiens, UniProt O00255); test: Menin-MLL1 inhibition assay (fluorescence polarization, Menin protein + FAM-MLL peptide); type: binding; settings: Menin (2-610) isoform 2, FAM-labelled MLL peptide, mP readout; read-out: Biochemical assay Menin-MLL1 IC50
T1 construct: Menin (2-610) isform2; purchased ChemPartner 2020111101
T1 sequence (O00255 2-610): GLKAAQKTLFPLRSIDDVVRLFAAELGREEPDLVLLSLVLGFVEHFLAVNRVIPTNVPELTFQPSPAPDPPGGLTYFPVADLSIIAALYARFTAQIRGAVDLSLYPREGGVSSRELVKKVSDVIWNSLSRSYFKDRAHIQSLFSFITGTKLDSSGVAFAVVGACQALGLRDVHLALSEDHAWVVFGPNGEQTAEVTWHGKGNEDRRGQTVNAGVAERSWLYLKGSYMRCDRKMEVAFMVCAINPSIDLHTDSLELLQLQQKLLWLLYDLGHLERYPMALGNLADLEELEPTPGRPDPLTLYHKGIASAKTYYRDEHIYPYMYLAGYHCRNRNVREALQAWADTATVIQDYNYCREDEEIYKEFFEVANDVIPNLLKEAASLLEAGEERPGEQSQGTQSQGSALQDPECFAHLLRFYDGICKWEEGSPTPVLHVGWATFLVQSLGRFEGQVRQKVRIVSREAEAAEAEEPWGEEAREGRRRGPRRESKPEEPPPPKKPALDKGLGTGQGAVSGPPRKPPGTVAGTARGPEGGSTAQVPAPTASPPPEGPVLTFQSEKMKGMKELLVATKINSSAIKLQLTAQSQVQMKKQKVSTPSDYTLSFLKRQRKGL

OCI-AML3 cells = test: Cell proliferation assay (CellTiter-Glo), OCI-AML3; type: cell-based, human; settings: Homo sapiens, OCI-AML-3, 120 h; OCI-AML3 (NPM1c mutation), 5 days incubation; read-out: Cell antiproliferation assay OCI-AML3 IC50
Description: (§1) The antiproliferative activity of test compounds was assessed in human leukemia cell lines. The cell line MV4-11, MOLM13 and OCI-AML3, which expresses the MLL fusion protein MLL-AF4, MLL-AF9 and carry the NPM1c gene mutation, respectively, were tested. HL-60 was used as a control cell line containing two MLL wildtype alleles in order to exclude compounds that display general cytotoxic effect. MV4-11 cells were cultured in IMDM supplemented with 10% FBS, MOLM13 and OCI-AML3 cells were cultured in RPMI1640 supplemented with 20% FBS, and HL-60 cells were cultured in IMDM supplemented with 20% FBS. Corresponding cells (MV4-11, MOLM13, OCI-AML3 or HL-60 cell line) were seeded in 100 uL medium per well in 96-well plate (white wall with clear bottom, tissue culture treated, Corning, Cat. No. CLS3903; Lot.No. 30419025). Plates were placed in the CO2 incubator overnight. Compounds solution (2 mM starting, 4-fold serial dilution) were prepared and added to the wells containing 100 μL of the culture medium with HPD300 according to the plate map and centrifuge at 1000 rpm for 1 minutes (200-fold dilution totally). MV4-11, MOLM13, OCI-AML3 and HL-60 cells were incubated with the compounds for 4, 12, 5 and 4 days, respectively, under 5% CO2 at 37° C., respectively. 100 μL of CellTiter-Glo reagent (Promega, Cat. No. G7573, Lot. No. 0000416710) was added to the assay plate by Multidrop Combi instrument, contents were mixed for 10 minutes on an orbital shaker to induce cell lysis. After incubation at room temperature for 10 mins, clear bottom with white back seal was pasted and luminescence with Envision was read.

MV-4-11 cells = test: Cell proliferation assay (CellTiter-Glo), MV-4-11; type: cell-based, human; settings: Homo sapiens, MV4-11, 96 h; MV-4-11 (MLL-AF4), 4 days incubation; read-out: Cell antiproliferation assay MV-4-11 IC50
How it was run: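 Antiproliferative activity by CellTiter-Glo luminescence; MV4-11 (MLL-AF4) in IMDM/10% FBS, 4 days; MOLM13 (MLL-AF9) in RPMI1640/20% FBS, 12 days; OCI-AML3 (NPM1c) in RPMI1640/20% FBS, 5 days; HL-60 (MLL wild-type control) in IMDM/20% FBS, 4 days. Compounds 4-fold serial from 2 mM stock, 200-fold final dilution; 37 °C, 5% CO2.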

MOLM13 cells = test: Cell proliferation assay (CellTiter-Glo), MOLM13; type: cell-based, human; settings: Homo sapiens, MOLM-13, 288 h; MOLM13 (MLL-AF9), 12 days incubation; read-out: Cell antiproliferation assay MOLM13 IC50
Description: as §1

HL-60 cells = test: Cell proliferation assay (CellTiter-Glo), HL-60 control line; type: cell-based, human; settings: Homo sapiens, 96 h, 4 days incubation; for IC50: HL-60 control line (MLL wildtype), read-out: Cell antiproliferation assay HL-60 IC50; for inhibition at 10 µM: HL-60 control line, read-out: HL-60 (Pct of inhibition at 10 μM)
Description: as §1

hERG potassium channel = molecular target: T2, hERG potassium channel (Homo sapiens, UniProt Q12809); test: hERG inhibition study (Qpatch, CHO-hERG cells); type: cell-based; settings: highest test concentration 40 μM
T2 construct: expressed in transfected cells; host or cells: CHO-hERG cells
Description: The inhibition effects of the test compounds on hERG were carried out in CHO-hERG cells (cell density: 21.5×10˜6/mL). 10 μL compound mother liquor was added to 20 μL DMSO solution, and then continuously diluted to 6 concentrations by 3-fold. The compound solution (4 uL) of six different concentrations were added to the extracellular solution (996 uL) and diluted to the final concentration to be tested (250-fold dilution totally). The highest test concentration was 40.00 μM, followed by […], 13.3, 4.4, 1.48, 0.49 and 0.16 μM. […] The high impedance sealing of single cell and the formation of whole cell model were all completed automatically by Qpatch instrument.

[1] = Liver microsome stability study; type: in vitro ADME; settings: human liver microsomes 0.5 mg/mL, 1 μM compound, NADPH, 37° C.; read-out: Human liver microsome T1/2
Description: Studies were carried out in liver microsomes (Corning, 0.5 mg/mL). Stock solutions were prepared at 10 mM in DMSO for the test compounds. Aliquots of the stock solutions were diluted to 0.5 mM with acetonitrile, and then further diluted upon the addition of liver microsomes/buffer to 1.5 μM. An aliquot of 30 μL of 1.5 μM solutions was mixed with 15 μL of 6 mM NADPH and the final concentration of NADPH was 2 mM, which had been pre-warmed to 37° C. Test compounds and Ketanserin final concentrations were 1 μM. The plates were kept in a 37° C. water bath for the duration of the experiment. At each time point (0, 5, 15, 30, 45 minutes), 135 μL of acetonitrile was added into corresponding wells. After the final time point was quenched by acetonitrile, the assay plates were shaken at the vibrator (IKA, MTS 2/4) for 10 min (600 rpm/min) and then centrifuged at 5,594 g for 15 min (Thermo Multifuge×3R). Aliquots of the supernatant were taken, diluted 1:1 into distilled water, and analyzed by LC-MS/MS. The peak area response ratio to internal standard (PARR) of the compounds at 5, 15, 30, 45 minutes was compared to the PARR at time 0 to determine the percent of test compound remaining at each time point. Half-lives were calculated using Excel software, fitting to a single-phase exponential decay equation.

T2 sequence (Q12809 whole entry): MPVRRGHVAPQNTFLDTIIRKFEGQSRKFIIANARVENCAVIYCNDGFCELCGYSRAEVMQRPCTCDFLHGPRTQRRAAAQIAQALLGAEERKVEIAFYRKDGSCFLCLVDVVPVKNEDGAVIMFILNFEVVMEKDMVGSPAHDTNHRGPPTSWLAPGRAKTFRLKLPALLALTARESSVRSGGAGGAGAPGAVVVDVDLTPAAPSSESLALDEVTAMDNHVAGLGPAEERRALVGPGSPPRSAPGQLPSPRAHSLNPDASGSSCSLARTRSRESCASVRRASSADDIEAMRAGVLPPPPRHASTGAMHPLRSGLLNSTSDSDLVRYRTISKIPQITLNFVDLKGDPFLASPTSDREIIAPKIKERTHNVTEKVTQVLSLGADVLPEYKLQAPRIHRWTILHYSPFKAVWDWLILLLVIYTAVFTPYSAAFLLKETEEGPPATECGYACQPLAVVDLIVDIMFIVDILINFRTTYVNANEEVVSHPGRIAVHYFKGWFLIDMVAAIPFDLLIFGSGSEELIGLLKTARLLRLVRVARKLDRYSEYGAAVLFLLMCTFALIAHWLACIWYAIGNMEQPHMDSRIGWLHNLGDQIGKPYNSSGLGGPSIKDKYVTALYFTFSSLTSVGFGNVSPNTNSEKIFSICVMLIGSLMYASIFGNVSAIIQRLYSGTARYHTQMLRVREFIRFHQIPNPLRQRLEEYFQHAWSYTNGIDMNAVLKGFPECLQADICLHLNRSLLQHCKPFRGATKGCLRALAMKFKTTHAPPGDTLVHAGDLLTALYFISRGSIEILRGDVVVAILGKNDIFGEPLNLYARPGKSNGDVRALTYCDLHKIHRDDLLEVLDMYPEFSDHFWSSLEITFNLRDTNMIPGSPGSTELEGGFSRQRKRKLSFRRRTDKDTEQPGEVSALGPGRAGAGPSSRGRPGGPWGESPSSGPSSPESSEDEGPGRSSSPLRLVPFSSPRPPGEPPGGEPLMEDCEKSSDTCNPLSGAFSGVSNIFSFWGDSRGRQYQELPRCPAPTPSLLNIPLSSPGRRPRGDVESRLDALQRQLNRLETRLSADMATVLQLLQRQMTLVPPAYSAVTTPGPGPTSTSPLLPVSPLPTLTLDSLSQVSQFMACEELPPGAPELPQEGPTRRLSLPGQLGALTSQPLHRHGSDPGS

Structure (SMILES) | IC50 (Menin-MLL1) | IC50 (OCI-AML3 cells) | IC50 (MV-4-11 cells) | IC50 (MOLM13 cells) | IC50 (HL-60 cells) | inhibition at 10 µM (HL-60 cells) | IC50 (hERG potassium channel) | half-life at 1 μM [1]
CCN(C(=O)c1cc(F)ccc1Oc1nncnc1N1CC2(CCN(C(=O)[C@H]3NC[C@H]4[C@@H]3C4(C)C)CC2)C1)C(C)C (stereo in doubt) [Example 68] | 4.1 nM | 68.3 nM | 13.8 nM | 46.1 nM | > 10000 nM | 14.1% | > 40000 nM | –
CCN(C(=O)c1cc(F)ccc1Oc1cncnc1N1CC2(CCN(C(=O)[C@@H]3C[C@@H](F)CN3)CC2)C1)C(C)C [Example 2, N-ethyl-5-fluoro-2-[(4-{7-[(2S,4R)-4-fluoropyrrolidine-2-carbonyl]-2,7-diazaspiro[3.5]nonan-2-yl}pyrimidin-5-yl)oxy]-N-(propan-2-yl)benzamide] | 4.3 nM | 102 nM | 20.3 nM | 62.4 nM | > 10000 nM | -30.1% | > 40000 nM | –
CCN(C(=O)c1cc(F)ccc1Oc1nncnc1N1CC2(CCN(C(=O)[C@@H]3C[C@@H](F)CN3)CC2)C1)C(C)C [Example 39, N-ethyl-5-fluoro-2-[(5-{7-[(2S,4R)-4-fluoropyrrolidine-2-carbonyl]-2,7-diazaspiro [3.5]nonan-2-yl}-1,2,4-triazin-6-yl)oxy]-N-(propan-2-yl) benzamide] | 4.2 nM | – | 43 nM | – | > 10000 nM | -24.9% | – | 1.57 h
CCN(C(=O)c1cc(F)ccc1Oc1nncnc1N1CC2(CCN(C(=O)[C@H]3NC[C@@H]4C[C@@H]43)CC2)C1)C(C)C [Example 55] | 2.3 nM | 186 nM | 14.2 nM | 61.9 nM | > 10000 nM | -5% | > 40000 nM | 2.65 h
CCN(C(=O)c1cc(F)ccc1Oc1nncnc1N1CC2(CCN(C(=O)[C@H]3NCC[C@@H]3C)CC2)C1)C(C)C [Example 57] | 5.3 nM | 144 nM | 13 nM | 57.8 nM | > 10000 nM | -16.4% | > 40000 nM | 1.75 h
CCN(C(=O)c1cc(F)ccc1Oc1nncnc1N1CC2(CCN(C(=O)[C@@H]3C[C@@H](C)CN3)CC2)C1)C(C)C [Example 60] | 4.5 nM | – | 40.1 nM | – | > 10000 nM | -8.4% | > 40000 nM | 1.98 h
O=C([C@@H]1C[C@@H](F)CN1)N1CCC2(CC1)CN(c1ncnnc1Oc1ccc(F)cc1-c1cncnc1C1CC1)C2 [Example 62] | 3.4 nM | – | 39.5 nM | – | > 10000 nM | -9.1% | – | 1.43 h
CCN(C(=O)c1cc(F)ccc1Oc1nncnc1N1CC2(CCN(C(=O)[C@H]3NCC[C@H]3C)CC2)C1)C(C)C [Example 63] | 3.5 nM | – | 43.4 nM | – | – | – | – | 2.08 h
CCN(C(=O)c1cc(F)ccc1Oc1nncnc1N1CC2(CCN(C(=O)[C@H]3NCCC3(C)C)CC2)C1)C(C)C [Example 65] | 3.1 nM | – | 15.1 nM | 57 nM | > 10000 nM | -3.7% | – | 1.12 h
C[C@@H]1CCN[C@@H]1C(=O)N1CCC2(CC1)CN(c1ncnnc1Oc1ccc(F)cc1-c1cncnc1C1CC1)C2 [Example 69] | 4.4 nM | – | 56.4 nM | – | – | – | – | 2.57 h
C[C@H]1CN[C@H](C(=O)N2CCC3(CC2)CN(c2ncnnc2Oc2ccc(F)cc2-c2cncnc2C2CC2)C3)C1 [Example 72] | 5.5 nM | – | 56.3 nM | – | – | – | – | 2.63 h
CCN(C(=O)c1cc(F)ccc1Oc1nncnc1N1CC2(CCN(C(=O)[C@H]3NC[C@@H]4CCC[C@@H]43)CC2)C1)C(C)C [Example 74] | 4.6 nM | 30.9 nM | 5.6 nM | 14.9 nM | > 10000 nM | 7.9% | > 40000 nM | –
C[C@H]1CCN[C@@H]1C(=O)N1CCC2(CC1)CN(c1ncnnc1Oc1ccc(F)cc1-c1cncnc1C1CC1)C2 [Example 77] | 3.4 nM | – | 17.3 nM | – | > 10000 nM | 17.5% | > 40000 nM | 1.35 h
O=C([C@H]1NC[C@@H]2CCC[C@@H]21)N1CCC2(CC1)CN(c1ncnnc1Oc1ccc(F)cc1-c1cncnc1C1CC1)C2 [Example 82] | 4.2 nM | 11.2 nM | 5.6 nM | 12.3 nM | > 10000 nM | 22.3% | 29400 nM | –
CCN(C(=O)c1cc(F)ccc1Oc1nncnc1N1CC2(CCN(C(=O)[C@H]3NCC[C@@H]3OC)CC2)C1)C(C)C [Example 84] | 5.1 nM | 67.1 nM | 20 nM | 60.9 nM | > 10000 nM | 15.1% | – | 1.13 h
CCN(C(=O)c1cc(F)ccc1Oc1nncnc1N1CC2(CCN(C(=O)[C@@H]3C[C@H](C)CN3)CC2)C1)C(C)C [Example 87] | 4.9 nM | – | 41.6 nM | – | – | – | – | 1.1 h

— US20240317748A1, “CARBONYL SUBSTITUTED DIAZASPIRO COMPOUNDS AND ITS USE” (BIONOVA PHARMACEUTICALS (SHANGHAI) LIMITED, priority 2021, published 2024)
